Bounds are passed on as bounds.

The assay has as its target T1, Kir3.1/3.4 (Rattus norvegicus, UniProt P48548+P63251).
T1 construct: expressed in transfected cells
T1 sequence (P63251 1-501): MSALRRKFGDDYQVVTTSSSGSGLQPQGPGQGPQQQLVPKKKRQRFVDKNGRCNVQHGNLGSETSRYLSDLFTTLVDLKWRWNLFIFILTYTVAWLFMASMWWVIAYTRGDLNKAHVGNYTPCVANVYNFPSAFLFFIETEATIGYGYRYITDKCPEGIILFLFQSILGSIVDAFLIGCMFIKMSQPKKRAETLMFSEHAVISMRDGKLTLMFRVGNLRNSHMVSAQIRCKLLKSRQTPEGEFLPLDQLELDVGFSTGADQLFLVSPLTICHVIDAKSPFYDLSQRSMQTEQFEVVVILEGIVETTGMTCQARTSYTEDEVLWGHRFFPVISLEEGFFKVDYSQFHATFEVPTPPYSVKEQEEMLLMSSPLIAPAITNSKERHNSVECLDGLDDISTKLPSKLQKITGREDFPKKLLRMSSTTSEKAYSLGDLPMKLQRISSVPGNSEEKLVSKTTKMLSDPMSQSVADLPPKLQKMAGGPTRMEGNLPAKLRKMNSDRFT
T1 sequence (P48548 1-419): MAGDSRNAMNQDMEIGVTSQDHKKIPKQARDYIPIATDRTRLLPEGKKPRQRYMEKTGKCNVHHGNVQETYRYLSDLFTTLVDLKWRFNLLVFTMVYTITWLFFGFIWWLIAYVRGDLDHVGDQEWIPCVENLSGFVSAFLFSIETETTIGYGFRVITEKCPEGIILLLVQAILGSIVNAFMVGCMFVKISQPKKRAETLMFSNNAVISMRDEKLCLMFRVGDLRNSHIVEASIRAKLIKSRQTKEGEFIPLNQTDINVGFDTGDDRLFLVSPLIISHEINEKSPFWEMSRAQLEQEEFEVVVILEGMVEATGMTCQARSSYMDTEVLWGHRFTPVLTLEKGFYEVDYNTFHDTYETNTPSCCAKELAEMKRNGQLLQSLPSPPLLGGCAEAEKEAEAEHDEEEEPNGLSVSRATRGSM
Briefly: Kir3.1/3.4 Electrophysiology Method (manual whole-cell patch clamp). It counts as cell-based. The settings on record: Electrophysiology Method (TABLE 1). Put shortly:
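Percent inhibition is relative to the pre-drug current, both leak-subtracted using a potassium-free bather, taken as the mean current at −140 mV. The protocol was a step to +60 mV, a ramp to −140 mV, then a return to −60 mV holding, every 10 s. Cells were rat Kir3.1/3.4-transfected HEK293 recorded by whole-cell patch clamp.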
For orientation: Patch clamp records ionic current or voltage across a cell membrane.
With `c1ccc(-c2csc3ncnc(N4CCC(CNCc5cccs5)CC4)c23)cc1` [Example 69, N-[[1-(5-phenylthieno[2,3-d]pyrimidin-4-yl)-4-piperidyl]methyl]-1-(2-thienyl)methanamine], the IC50 (usually the concentration that inhibits the measured activity by half) is under 500 nM. For the compound `O=C(NCCN1CCCC1)C1CCN(c2ncnc3scc(-c4ccccc4)c23)CC1` [Example 267], the IC50 is 500 to 3000 nM. Turning to `FC(F)(F)c1nc(N2CCC(COCCN3CCCC3)CC2)c2c(-c3ccccc3)csc2n1` [Example 340, 5-phenyl-4-[4-(2-pyrrolidin-1-ylethoxymethyl)-1-piperidyl]-2-(trifluoromethyl)thieno[2,3-d]pyrimidine], the IC50 was under 500 nM. Turning to `COCC1CCN(c2nc(NCCC3CCCN3C)nc3scc(C4CCCCC4)c23)CC1` (centres unmarked) [Example 177], the IC50 lay in the range of 500 to 3000 nM. Next, `OCC1CCCN1CC1CCN(c2ncnc3scc(-c4ccccc4)c23)CC1` (centres unmarked) [Example 65, [1-[[1-(5-phenylthieno[2,3-d]pyrimidin-4-yl)-4-piperidyl]methyl]pyrrolidin-2-yl]methanol]: under 500 nM; `COCC1CCN(c2nc(CC(=O)N3CCCC3)nc3scc(-c4ccccc4)c23)CC1` [Example 183, 2-[4-[4-(methoxymethyl)-1-piperidyl]-5-phenyl-thieno[2,3-d]pyrimidin-2-yl]-1-pyrrolidin-1-yl-ethanone]: 500 to 3000 nM.

`CN(C)C(=O)c1ccccc1-c1csc2ncnc(N3CCC(COCCN4CCCC4)CC3)c12` [Example 330] had an IC50 of 3000 to 10000 nM. Under `CC(C)(C)NCC1CC2CCC(C1)N2c1ncnc2scc(-c3ccccc3)c12` (centres unmarked) [Example 333] stands under 500 nM; under `CC1CN(CC2CCN(c3ncnc4scc(C5CCCCC5)c34)CC2)CC(C)O1` (centres unmarked) [Example 197], under 500 nM. Next, `CN1CCC(N(C)CC2CCN(c3nc(N4CCCC(C(N)=O)C4)nc4scc(-c5ccccc5)c34)CC2)C1` (centres unmarked) [Example 238]: under 500 nM; `OCCN(CCO)CC1CCN(c2ncnc3scc(C4CCCCC4)c23)CC1` [Example 201]: under 500 nM. Next, `CN1CCN(CC2CCN(c3ncnc4scc(-c5ccccc5)c34)CC2)CC1` [Example 214]: under 500 nM; `CC(C)NC(=O)c1sc2ncnc(N3CCC(COCCN4CCCC4)CC3)c2c1-c1cccc(F)c1` [Example 137]: under 500 nM; `OCCN(CCO)CC1CCN(c2ncnc3scc(-c4ccccc4)c23)CC1` [Example 186]: 500 to 3000 nM. `CN1CCC(N(C)CC2CCN(c3nc(N4CCCC4C(N)=O)nc4scc(-c5ccccc5)c34)CC2)C1` (centres unmarked) [Example 130] yielded an IC50 of 500 to 3000 nM. Compound `OCC1CC2CCC(C1)N2c1nc(N2CCOCC2)c2c(-c3ccccc3)csc2n1` (centres unmarked) [Example 165, [8-(4-morpholino-5-phenyl-thieno[2,3-d]pyrimidin-2-yl)-8-azabicyclo[3.2.1]octan-3-yl]methanol] registered an IC50 of 500 to 3000 nM. In the case of `O[C@H]1CN(CC2CCN(c3ncnc4scc(-c5ccccc5)c34)CC2)C[C@@H]1N1CCCC1` [Example 67, (3S,4S)-1-[[1-(5-phenylthieno[2,3-d]pyrimidin-4-yl)-4-piperidyl]methyl]-4-pyrrolidin-1-yl-pyrrolidin-3-ol], the half-maximal inhibitory concentration (IC50) was under 500 nM. Under `C=CCNCC1CCN(c2ncnc3scc(-c4ccccc4)c23)CC1` [Example 94, N-[[1-(5-phenylthieno[2,3-d]pyrimidin-4-yl)-4-piperidyl]methyl]prop-2-en-1-amine] stands under 500 nM; under `CN(C)C(=O)c1sc2ncnc(N3CCC(COCCN4CCCC4)CC3)c2c1-c1cccc(F)c1` [Example 138], under 500 nM; under `CCc1nc(N2CCC(N(C)C)CC2)c2c(-c3ccccc3)csc2n1` [Example 170], 500 to 3000 nM.

`CN(C)C1CCN(c2ncnc3scc(-c4ccccc4)c23)CC1` [Example 169] returned an IC50 of 500 to 3000 nM.

In turn, `CN1CCN(c2nc(N3CCC(CN(C)C4CCN(C)C4)CC3)c3c(-c4ccccc4)csc3n2)CC1` (centres unmarked) [Example 111] yielded an IC50 of under 500 nM. `NC(=O)[C@@H]1CCCN1CC1CCN(c2ncnc3scc(-c4ccccc4)c23)CC1` [Example 106] came in with an IC50 of under 500 nM. Next, `CC(C)c1csc2ncnc(N3CCC(CNCCC4CCCN4C)CC3)c12` (centres unmarked) [Example 242]: under 500 nM.

In turn, `Nc1nc(N2CCC(COCCN3CCCC3)CC2)c2c(-c3ccccc3)csc2n1` [Example 314, 5-phenyl-4-[4-(2-pyrrolidin-1-ylethoxymethyl)-1-piperidyl]thieno[2,3-d]pyrimidin-2-amine] registered an IC50 of under 500 nM.

In turn, `COc1ccccc1-c1csc2nc(C3CC3)nc(N3CCC(COCCN4CCCC4)CC3)c12` [Example 358, 2-cyclopropyl-5-(2-methoxyphenyl)-4-[4-(2-pyrrolidin-1-ylethoxymethyl)-1-piperidyl]thieno[2,3-d]pyrimidine] came in with an IC50 of under 500 nM. `CC(=O)N(C)C1CCN(CC2CCN(c3ncnc4scc(-c5ccccc5)c34)CC2)C1` (centres unmarked) [Example 248] returned an IC50 of under 500 nM. `NC(=O)C1CCN(c2nc(N3CCC(CNC4CCC4)CC3)c3c(-c4ccccc4)csc3n2)C1` (centres unmarked) [Example 128] gave an IC50 of 500 to 3000 nM. In turn, `COCC1CCN(c2nc(CCN3CCCC3)nc3scc(-c4ccc(F)cc4)c23)CC1` [Example 184, 5-(4-fluorophenyl)-4-[4-(methoxymethyl)-1-piperidyl]-2-(2-pyrrolidin-1-ylethyl)thieno[2,3-d]pyrimidine] yielded an IC50 of under 500 nM. As for `CN1CCCC1CCOCC1CCN(c2ncnc3sccc23)CC1` (centres unmarked) [Example 3, 4-[4-[2-(1-methylpyrrolidin-2-yl)ethoxymethyl]-1-piperidyl]thieno[2,3-d]pyrimidine], the IC50 lay in the range of 3000 to 10000 nM.

With `OCCNc1nc(N2CCC(CCO)CC2)c2c(-c3ccc(F)cc3)csc2n1` [Example 171], the IC50 fell in the range of 500 to 3000 nM.

In the case of `COCC1CCN(c2nc(N(CCO)CCN3CCCC3)nc3scc(-c4ccccc4)c23)CC1` [Example 185], the IC50 is under 500 nM. With `C[C@@H](CN(C)C)OCC1CCN(c2ncnc3scc(-c4ccccc4)c23)CC1` [Example 254], the IC50 was under 500 nM. With `c1ccc(-c2csc3ncnc(N4CC[C@H](COCCN5CCCC5)C4)c23)cc1` [Example 263], the IC50 was under 500 nM. Under `Fc1ccc(-c2csc3ncnc(N4CC5C(COCCN6CC[C@@H](F)C6)C5C4)c23)cc1` (some centres unmarked) [Example 278] stands under 500 nM. Under `NC(=O)C1CCCN1CC1CCN(c2ncnc3scc(-c4ccccc4)c23)CC1` (centres unmarked) [Example 247] stands under 500 nM. Take `c1ccc(-c2csc3ncnc(N4CCC(CNCC5CC5)CC4)c23)cc1` [Example 49, 1-cyclopropyl-N-[[1-(5-phenylthieno[2,3-d]pyrimidin-4-yl)-4-piperidyl]methyl]methanamine]: the IC50 was under 500 nM. Consider “N-(2-pyrrolidin-1-ylethyl)thieno[2,3-d]pyrimidin-2-amine [Example 108]”, for which the concentration for half-maximal inhibition (IC50) lay within 500 to 3000 nM. Next, `NC(=O)C1CCN(c2nc(N3CCOCC3)c3c(-c4ccccc4)csc3n2)C1` (centres unmarked) [Example 306]: 3000 to 10000 nM; `c1ccc(-c2csc3ncnc(N4CCCC(OCCN5CCCC5)C4)c23)cc1` (centres unmarked) [Example 272]: under 500 nM; `CN(C)C1CCN(c2nc(NCCN3CCCC3)nc3scc(-c4ccccc4)c23)CC1` [Example 179]: 500 to 3000 nM. Under `FC(F)(F)C1CCCN(CC2CCN(c3ncnc4scc(-c5ccccc5)c34)CC2)C1` (centres unmarked) [Example 212] stands under 500 nM; under `CC(=O)NC1CCN(c2nc(N3CCC(COCCN4CCCC4)CC3)c3c(-c4ccccc4)csc3n2)C1` (centres unmarked) [Example 257], under 500 nM. Next, `CC(C)NC(=O)c1sc2ncnc(N3CCC(COCCN4CCCC4)CC3)c2c1-c1ccccc1` [Example 139, N-isopropyl-5-phenyl-4-[4-(2-pyrrolidin-1-ylethoxymethyl)-1-piperidyl]thieno[2,3-d]pyrimidine-6-carboxamide]: under 500 nM. In turn, `CN(CC(=O)N1CCCC1)CC1CCN(c2ncnc3scc(-c4ccccc4)c23)CC1` [Example 93, 2-[methyl-[[1-(5-phenylthieno[2,3-d]pyrimidin-4-yl)-4-piperidyl]methyl]amino]-1-pyrrolidin-1-yl-ethanone] returned an IC50 of 500 to 3000 nM.

Compound “N,N-dimethyl-5-phenyl-thieno[2,3-d]pyrimidine-6-carboxamide [Example 339]” returned an IC50 of under 500 nM.

Consider `CN(C)C(=O)c1sc2ncnc(N3C4CCC3CC(COCCN3CCCC3)C4)c2c1-c1ccccc1` (centres unmarked) [Example 356], for which the IC50 is under 500 nM.

Source of the values: patent publication US9290511B2, “Thieno-pyrimidines, useful as potassium channel inhibitors” (XENTION LIMITED, priority 2011, dated 2016).
